Experimental data: patent publication US10711247B2, “Method for reducing pluripotent stem cells, method for producing cell population having reduced pluripotent stem cells” (TOKYO WOMEN'S MEDICAL UNIVERSITY, priority 2015, dated 2020)
Where two headings read alike, the source gives them in different places.

Columns and labels:
feeder-less iPS cells [1] = system: feeder-less iPS cells
Method: (§1) FIGS. 8A and 8B indicate the results of culturing iPS cells cultured on laminin E8 fragments following the addition of capsaicin. Vehicle-1 represents the control used in the experiment in which capsaicin was added at 2×10^−4 M, Vehicle-2 represents the control used in the experiment in which capsaicin was added at 1×10^−4 M, and Vehicle-3 represents the control used in the experiment in which capsaicin was added at 1×10^−5 M. The upper panels in FIG. 8A indicates phase-contrast images and the bars represent 100 μm. The middle panels indicate Hoechst staining images and the bars represent 200 μm. The lower panels indicate montage images of 36 fields (6×6) of the Hoechst staining images. FIG. 8B is a graph indicating the numbers of cells in 36 fields under each condition.
(§2) Human iPS cell lines 253G1 and 2017 were purchased from RIKEN (Ibaraki, Japan). Transfer of human iPS cell line 1231A3 was received from Kyoto University.

feeder-less iPS cells [2] = test: feeder-less iPS cells cultured with TRPV-1 agonists, number of cells in 36 fields (Hoechst staining); details: feeder-less iPS cells on laminin E8 fragments
Method: as §1, §2

[3] = system: iPS cell-derived cardiomyocytes; test: iPS cell-derived cardiomyocytes cultured in medium containing capsaicin; format: cell-based, human
Method: Prior to seeding the cells, the surface of a temperature-responsive culture dish (Upcell®, CellSeed Inc., Tokyo, Japan) or cell culture dish (Corning, Inc., Corning, N.Y., USA) was coated with fetal bovine serum (FBS) for 2 hours. After the iPS cells were induced to differentiate into cardiomyocytes, the cells were detached using 0.05% trypsin/EDTA and the cell aggregates were broken up into single cells using a strainer (BD Biosciences, Inc., San Jose, Calif., USA), followed by seeding in a culture dish at 2.1×10^5 cells/cm^2 using DMEM medium (Sigma-Aldrich Corp., St. Louis, Mo., USA) containing 10% FBS and culturing in a humidified atmosphere at 37° C. and 5% CO2. In several of the experiments, the cells were treated with puromycin (Sigma-Aldrich Corp., 1.5 μg/mL) for 1 day to purify the iPS cell-derived cardiomyocytes (strain 201B7, αMHC-puro/Rex1-neo).

Structure (SMILES): CCCCCCCC/C=C\CCCCCCCC(=O)NCCc1ccc(O)c(O)c1 [OLDA, N-oleoyldopamine]
- cytotoxic activity against iPS cells (feeder-less iPS cells [1]): demonstrated cytotoxic activity against iPS cells

Structure (SMILES): CCCCC/C=C\C/C=C\C/C=C\C/C=C\CCCC(=O)NCc1ccc(O)c(OC)c1 [arvanil]
- cytotoxic activity against iPS cells (feeder-less iPS cells [2]; FIGS. 9 and 10): demonstrated cytotoxic activity against iPS cells

Structure (SMILES): COc1cc(CNC(=O)CCCC/C=C/C(C)C)ccc1O [capsaicin]
- number of cells (feeder-less iPS cells [2]; capsaicin 2×10^−4 M, 1×10^−4 M, 1×10^−5 M vs vehicle (FIGS. 8A and 8B)): significantly decreased concentration-dependently
- independent pulsation of the cardiomyocytes ([3]; capsaicin 200 μM and 100 μM (concentrations toxic to iPS cells)): maintained
- numbers of Nkx2.5-positive cells ([3]; capsaicin 200 μM and 100 μM, compared with vehicle (FIGS. 8C and 8D)): no changes
